According to PubChem BioAssay (NCI):
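Interpolation was linear, between the two tested concentrations surrounding the appropriate level; five concentrations were tested over 48 hours in 96-well plates. GI50 marks 50% less growth. TGI denotes the concentration required for complete inhibition of growth.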

How the values were obtained:
Test in all cases: inhibition of tumour cell growth, NCI panel, 48 h
[1] = test system: ACHN renal
[2] = test system: OVCAR-5 ovarian
[3] = test system: NCI-H460 lung
[4] = test system: OVCAR-4 ovarian
[5] = test system: SF-268 CNS
[6] = test system: SK-OV-3 ovarian
[7] = test system: MCF7 breast
[8] = test system: HCT-15 colon
[9] = test system: PC-3 prostate
[10] = test system: OVCAR-8 ovarian

Structure (SMILES)	GI50 [1] [µM]	TGI [1] [µM]	GI50 [2] [µM]	TGI [2] [µM]	GI50 [3] [µM]	TGI [3] [µM]	GI50 [4] [µM]	TGI [4] [µM]	GI50 [5] [µM]	TGI [5] [µM]	GI50 [6] [µM]	TGI [6] [µM]	GI50 [7] [µM]	TGI [7] [µM]	GI50 [8] [µM]	TGI [8] [µM]	GI50 [9] [µM]	TGI [9] [µM]	GI50 [10] [µM]	TGI [10] [µM]
COC(=O)c1cc2c(cc1Cl)SC(N(N(C)C)S(=O)(=O)c1ccc(Br)s1)=NS2(=O)=O	24.2	54.1	29.8	81.1	22.4	43.9	19.2	53.7	27.4	67.3	28	66.7	22.4	44.7	18	33.6	16	35.1	–	–
Nc1c(C(=O)c2ccc(Cl)cc2)sc(Nc2ccccc2)c1-c1nc2ccccc2s1	1.61	> 100	> 100	> 100	0.776	> 100	–	–	1.44	> 100	1.99	19	1.65	> 100	2.44	> 100	2.35	> 100	2.68	> 100
NNC(=O)/C(=C/c1ccc(Cl)c(Cl)c1)NC(=O)c1ccccc1	–	> 100	–	> 100	–	> 100	–	> 100	–	> 100	–	–	–	–	–	–	–	–	–	> 100
CCNC(=O)CCN(C(=O)O)S(=O)(=O)c1ccc(NC(=O)c2ccccc2)cc1	–	> 100	–	> 100	–	> 100	–	> 100	–	> 100	–	> 100	–	–	–	> 100	–	–	–	> 100
c1ccc2c(c1)CCC/C2=N\OCC1CO1 (centres undefined)	–	> 100	–	> 100	–	> 100	–	> 100	–	> 100	–	> 100	–	–	–	> 100	–	–	–	> 100
CC(=O)OCC1OC(N2C(=O)C(=O)c3cc(C)ccc32)C(OC(C)=O)C(OC(C)=O)C1OC(C)=O (centres undefined)	–	> 100	–	> 100	–	> 100	–	> 100	–	> 100	–	> 100	–	–	–	> 100	–	–	–	> 100
O=C1OC(CC(=O)c2ccc(Cl)c(Cl)c2)C(Cl)=C1Cl (centres undefined)	–	> 100	–	> 100	–	> 100	–	> 100	–	> 100	–	> 100	–	–	–	> 100	–	–	–	> 100
COc1ccccc1N1C(=O)/C(=C/c2ccc(N(CCC#N)CCC#N)cc2C)N=C1c1cc([N+](=O)[O-])ccc1Cl	–	> 100	–	> 100	–	> 100	–	71.7	–	> 100	–	> 100	–	–	–	> 100	–	–	–	> 100
CC(C)(C#N)c1cc(Cn2cncn2)cc(C(C)(C)C#N)c1	–	–	> 10000	> 10000	3990	> 10000	> 10000	> 10000	> 10000	> 10000	> 10000	> 10000	2240	> 10000	> 10000	> 10000	792	> 10000	> 10000	> 10000
COC(=O)C1C(C(=O)OC)C2(OC)c3ccccc3-c3ccccc3C12 (centres undefined)	–	> 100	–	> 100	–	> 100	–	> 100	–	> 100	–	> 100	–	–	–	> 100	–	–	–	> 100
COc1ccc(-c2onc(-c3ccc([N+](=O)[O-])cc3)c2C2=NCCN2)cc1	–	> 100	–	> 100	–	> 100	–	> 100	–	> 100	–	–	–	–	–	> 100	–	–	–	> 100
O=C1c2ccccc2-c2cccc3ccc(Cc4ccc5ccccc5c4)c1c23	–	> 100	–	> 100	–	> 100	–	> 100	–	> 100	–	–	–	–	–	> 100	–	–	–	> 100
CCOC(=O)C(N)C[S][Sn]([CH3])([CH3])[Cl] (centres undefined)	> 100	> 100	> 100	> 100	> 100	> 100	> 100	> 100	> 100	> 100	> 100	> 100	–	–	> 79.1	> 100	–	–	> 100	> 100
C=CCC(N[C@H](CO)c1ccccc1)c1ccc2ccccc2n1 (some centres undefined)	> 100	> 100	> 100	> 100	–	–	> 100	> 100	–	–	> 100	> 100	–	–	> 100	> 100	> 100	> 100	> 100	> 100
O=S(=O)(N/N=C/c1ccc(/C=N/NS(=O)(=O)c2ccccc2)cc1)c1ccccc1	–	> 100	–	51	–	> 100	–	> 100	–	> 100	–	> 100	–	–	–	> 100	–	–	–	> 100
CCCCOC(=O)NC(=O)c1cn(CCCOC(=O)CCCCCCCCC(=O)OCCCn2cc(C(=O)NC(=O)OCCCC)c(=O)[nH]c2=O)c(=O)[nH]c1=O	–	> 100	–	> 100	–	> 100	–	> 100	–	> 100	–	> 100	–	–	–	> 100	–	–	–	> 100
O=[N+]([O-])c1cccc(C2N3CCCCC3[C@@H]3c4[nH]c5ccccc5c4CCN23)c1 (some centres undefined)	–	38.7	–	32.7	–	31.1	–	32.2	–	27.4	–	52.1	–	–	–	23.3	–	–	–	> 100
CCN(CC)CCC(=O)NC1c2ccc(Cl)cc2Oc2c(C)cccc21 (centres undefined)	–	–	–	29.2	–	31.7	–	28.9	–	38.9	–	31.8	–	31	–	34.6	–	26.7	–	31.4
CC(=O)c1cccc(N2COC(C)(C)c3nc4ccccc4n3C2)c1	–	> 100	–	–	–	> 100	–	> 100	–	> 100	–	> 100	–	–	–	> 100	–	–	–	> 100
CC/C(C)=C1\CCC(CN2CCOCC2)C1=O (centres undefined)	–	19.8	–	31.3	–	32.4	–	31.7	–	26	–	–	–	–	–	26.5	–	–	–	50.6
